Measured values taken from patent US5817766A, “Reagents for a cannabinoid immunoassay” (Roche Diagnostic Systems, Inc., priority 1995, dated 1998).

Assays:
MoAb 11E.2 = assay: MIRA assay ABUSCREEN 100 TEST ONLINE KIT for cannabinoids, MoAb 11E.2; assay type: binding, Murine; settings: commercial MIRA assay; (II) = 100 by definition; IgA from immunization with (VIII) alone
Excerpt: (§1) Table 2 below illustrates how a novel clone (11A6) derived by using the triple sequential immunization procedure described herein performs in an actual commercial MIRA (Roche Diagnostic Systems, Inc., Branchburg, N.J.) assay ABUSCREEN® 100 TEST ONLINE™ KIT (Roche Diagnostic Systems, Inc., Branchburg, N.J. immunoassay) for cannabinoids. Example 20 describes the reagents contained in Roche's commercial Abuscreen® 100 Test Online™ Kit, except that the antibody has been replaced by a novel antibody according to this invention. […] Both tables also report the corresponding results using the monoclonal antibody (11E.2) derived from immunization with a single immunogen (immunogen (VIII)).
(§2) In Table 2, MoAb 11E.2 is an IgA (dimeric) antibody, while MoAB 11A6 is an IgG (monomeric) antibody. In order to agglutinate the microparticles included in the current commercial MIRA assay when 11A6 is used, inclusion of an anti-IgG antibody (commercially available, e.g., from Biodesign Int., Kennebunk, Me. 04043, USA) was required.
(§3) This example describes the reagents contained in Roche's ABUSCREEN® 100 TEST ONLINE™ KIT (Roche Diagnostic Systems, Inc., Branchburg, N.J. immunoassay) for cannabinoids.
(§4) 1. Antibody Reagent: A cannabinoid monoclonal antibody (IgG) with a secondary antibody adjusted in concentration to give the best dynamic standard curve with desired performance characteristics around the assay cutoff. This antibody is diluted in an antibody diluent containing: 50 mM HEPES, 0.1% BSA, 0.5% sodium chloride, 0.09% sodium azide and adjusted to a pH of 6.5.
(§5) 2. Microparticle Reagent: Conjugated cannabinoids derivative microparticle in a buffer containing 10 mM kPi pH 7.5 and 0.09% sodium Azide (supplied in kit).
(§6) 3. Sample Diluent: Buffer containing 50 mM PIPES pH 7.0, 2.5% PVP, 2.0% Sodium Chloride and 0.09% sodium azide (supplied in kit).
(§7) An assay using the above reagents is performed pursuant to the directions stated in the package insert for the commercially available Roche Abuscreen® Online™ 100 test kit for cannabinoids.

MoAb 11A6 = assay: MIRA assay ABUSCREEN 100 TEST ONLINE KIT for cannabinoids, MoAb 11A6 with anti-IgG; assay type: binding, Murine; settings: commercial MIRA assay; (II) = 100 by definition; IgG from triple sequential immunization
Excerpt: as §1, §2, §3, §4, §5, §6, §7

| SMILES | CROSS REACTIVITY (%) MoAb 11E.2 (MoAb 11E.2) [%] | CROSS REACTIVITY (%) MoAb 11A6 with anti-IgG (MoAb 11A6) [%] |
| --- | --- | --- |
| CCCCCc1cc(O)c2c(c1)OC(C)(C)[C@@H]1C[C@H](O)C(C)=C[C@@H]21 [(-)-8α-Hydroxy-Δ^9 -THC (VI), (-)-8α-Hydroxy-Δ^9 -THC] | 60 | 71 |
| CCCCCc1cc(O)c2c(c1)OC(C)(C)[C@@H]1CCC(C)=C[C@@H]21 [(-)-Δ^9 -THC, Δ^9 -tetrahydrocannabinol] | 7.6 | 7.3 |
| CCCCCc1cc(O)c2c(c1)OC(C)(C)[C@@H]1CCC(CO)=C[C@@H]21 [(-)-11-Hydroxy-Δ^9 -THC (V), (-)-11-Hydroxy-Δ^9 -THC] | 23 | 32 |
| CCCCCc1cc(O)c2c(c1)OC(C)(C)[C@@H]1C[C@@H](O)C(CO)=C[C@@H]21 [(-)-8β,11-Dihydroxy-Δ^9 -THC (VII), (-)-8β,11-Dihydroxy-Δ^9 -THC] | 14 | 36 |
| CCCCCc1cc(O)c2c(c1)OC(C)(C)c1ccc(C)cc1-2 [Cannabinol] | 0.6 | 1.6 |
| CCCCCc1cc(O)c2c(c1)OC(C)(C)c1ccc(CO)cc1-2 [11-Hydroxycannabinol] | 16 | 35 |
| CCCCCc1cc(O)c2c(c1)OC(C)(C)[C@@H]1CCC(C(=O)O)=C[C@@H]21 [(-)-Δ^9-11-nor-9-COOH-THC (II), Δ^9-11-nor-9-carboxy-THC] | 100 | 100 |
| C=C(C)[C@@H]1CCC(C)=C[C@H]1c1c(O)cc(CCCCC)cc1O [Cannabidiol] | < 0.1 | < 0.1 |
